In ChEMBL document CHEMBL4118122, “Identification and biological evaluation of thiazole-based inverse agonists of RORγt” (Bioorg Med Chem Lett, 2018):
Converted amounts (≈) assume the structure as drawn.

Key:
[1] = Thermodynamic solubility of the compound in fasted state simulated intestinal […] after 2 to 5 days by UV-HPLC analysis; format: physicochemical; conditions: read-out: Therm_solubility
[2] = molecular target: Cytochrome P450 2C9 (Homo sapiens, UniProt P11712); experiment: Inhibition of CYP2C9 (unknown origin); format: ADME
[3] = Half life in human microsomes; format: ADME, Microsome
[4] = molecular target: Cytochrome P450 2C19 (Homo sapiens, UniProt P33261); experiment: Inhibition of CYP2C19 (unknown origin); format: ADME
[5] = Half life in rat microsomes; format: ADME, Microsome
[6] = molecular target: Cytochrome P450 3A4 (Homo sapiens, UniProt P08684); experiment: Inhibition of CYP3A4 (unknown origin); format: ADME
[7] = molecular target: Cytochrome P450 2D6 (Homo sapiens, UniProt P10635); experiment: Inhibition of CYP2D6 (unknown origin); format: ADME
[8] = Thermodynamic solubility of the compound in 30 mM phosphate buffer at 10 mM at pH 7 after 2 to 5 days by UV-HPLC analysis; format: physicochemical; conditions: read-out: Therm_solubility
[9] = molecular target: T1, Cytochrome P450 1A2 (Homo sapiens, UniProt P05177); experiment: Inhibition of CYP1A2 (unknown origin); format: ADME
T1 sequence (P05177 whole entry): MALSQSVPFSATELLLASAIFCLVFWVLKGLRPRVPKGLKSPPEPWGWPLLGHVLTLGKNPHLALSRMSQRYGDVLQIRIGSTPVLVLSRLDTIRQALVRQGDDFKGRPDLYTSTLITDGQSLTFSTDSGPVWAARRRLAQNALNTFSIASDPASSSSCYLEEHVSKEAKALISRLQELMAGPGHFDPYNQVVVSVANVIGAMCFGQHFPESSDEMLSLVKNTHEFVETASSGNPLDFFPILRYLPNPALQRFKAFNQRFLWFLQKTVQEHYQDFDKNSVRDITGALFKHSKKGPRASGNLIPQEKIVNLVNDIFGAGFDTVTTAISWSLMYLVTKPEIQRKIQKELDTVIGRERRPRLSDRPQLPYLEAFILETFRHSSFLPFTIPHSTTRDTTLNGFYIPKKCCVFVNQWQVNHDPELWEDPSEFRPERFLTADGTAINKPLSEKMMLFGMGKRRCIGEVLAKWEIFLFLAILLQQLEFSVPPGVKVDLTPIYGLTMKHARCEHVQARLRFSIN

[10] = molecular target: T2, Cytochrome P450 2C8 (Homo sapiens, UniProt P10632); experiment: Inhibition of CYP2C8 (unknown origin); format: ADME
T2 sequence (P10632 whole entry): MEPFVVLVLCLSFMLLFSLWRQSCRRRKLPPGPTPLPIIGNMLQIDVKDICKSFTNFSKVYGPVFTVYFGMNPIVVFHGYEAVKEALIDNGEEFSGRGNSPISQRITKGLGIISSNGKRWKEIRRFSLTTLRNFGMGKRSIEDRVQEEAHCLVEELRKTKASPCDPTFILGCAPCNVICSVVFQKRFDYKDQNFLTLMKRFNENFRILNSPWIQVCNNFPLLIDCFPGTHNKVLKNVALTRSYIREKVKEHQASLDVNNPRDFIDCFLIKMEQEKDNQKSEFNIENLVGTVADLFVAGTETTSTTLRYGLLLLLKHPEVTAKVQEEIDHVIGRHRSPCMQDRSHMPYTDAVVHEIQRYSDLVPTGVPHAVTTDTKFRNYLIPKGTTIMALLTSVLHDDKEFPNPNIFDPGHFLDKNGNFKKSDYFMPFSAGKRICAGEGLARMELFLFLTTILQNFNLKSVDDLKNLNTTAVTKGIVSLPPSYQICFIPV

[11] = molecular target: T3, PXR (NR1I2) (Homo sapiens, UniProt O75469); experiment: […] at PXR LBD (unknown origin) expressed in HEK293 cells […] at 1 uM after 16 hrs by luciferase reporter gene assay relative to rifampicin; format: ADME, cell-based; conditions: HEK293 cells expressing PXR LBD, read-out: Efficacy
T3 sequence (O75469 whole entry): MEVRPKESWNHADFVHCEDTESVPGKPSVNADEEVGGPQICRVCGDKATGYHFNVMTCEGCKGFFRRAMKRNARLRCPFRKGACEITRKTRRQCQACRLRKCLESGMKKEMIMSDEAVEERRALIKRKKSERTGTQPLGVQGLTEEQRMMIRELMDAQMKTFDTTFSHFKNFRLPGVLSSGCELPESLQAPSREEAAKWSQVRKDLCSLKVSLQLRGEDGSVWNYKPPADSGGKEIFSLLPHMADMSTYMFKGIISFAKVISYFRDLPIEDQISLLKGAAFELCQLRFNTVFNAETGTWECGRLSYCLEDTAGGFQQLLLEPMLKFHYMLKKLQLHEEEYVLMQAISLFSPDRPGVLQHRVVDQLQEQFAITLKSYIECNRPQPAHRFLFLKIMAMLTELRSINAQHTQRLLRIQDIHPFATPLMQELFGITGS

[12] = molecular target: T3, PXR (NR1I2); experiment: […] at PXR LBD (unknown origin) expressed in HEK293 cells […] at 10 uM after 16 hrs by luciferase reporter gene assay relative to rifampicin; format: ADME, cell-based; conditions: HEK293 cells expressing PXR LBD, read-out: Efficacy
[13] = AUC (0 to infinity) in Sprague-Dawley rat at 1 mg/kg, iv; format: ADME, organism-based; design: dose 1 mg/kg, time infinity, route intravenous; conditions: in vivo
[14] = Volume of distribution at steady state in Sprague-Dawley rat at 1 mg/kg, iv; format: ADME, organism-based; conditions: in vivo, read-out: Vdss
[15] = molecular target: T4, Nuclear receptor ROR-beta (Homo sapiens, UniProt Q92753); experiment: Binding affinity to recombinant human RORbeta LBD (201 to 452 residues) expressed in Escherichia coli BL21 (DE3) GOLD by 1,8-ANS dye-based thermofluor assay
T4 sequence (Q92753 whole entry): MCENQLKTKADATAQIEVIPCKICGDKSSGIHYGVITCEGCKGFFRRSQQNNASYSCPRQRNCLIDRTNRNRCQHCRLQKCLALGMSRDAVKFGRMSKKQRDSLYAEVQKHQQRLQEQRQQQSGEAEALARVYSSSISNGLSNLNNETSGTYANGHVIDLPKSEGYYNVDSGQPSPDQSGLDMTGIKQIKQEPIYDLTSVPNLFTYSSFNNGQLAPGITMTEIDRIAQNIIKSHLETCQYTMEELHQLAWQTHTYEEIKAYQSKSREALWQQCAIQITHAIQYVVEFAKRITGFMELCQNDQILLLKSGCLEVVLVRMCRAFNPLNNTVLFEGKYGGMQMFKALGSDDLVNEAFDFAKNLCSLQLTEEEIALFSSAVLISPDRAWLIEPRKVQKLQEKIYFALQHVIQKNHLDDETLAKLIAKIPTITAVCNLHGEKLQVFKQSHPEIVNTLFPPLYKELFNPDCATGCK

[16] = Initial plasma concentration in Sprague-Dawley rat at 1 mg/kg, iv; format: ADME, organism-based
[17] = Cmax in Sprague-Dawley rat at 5 mg/kg, po; format: ADME, organism-based; design: dose 5 mg/kg, route oral; conditions: in vivo
[18] = Oral bioavailability in Sprague-Dawley rat at 5 mg/kg; format: ADME, organism-based; conditions: in vivo
[19] = Half life in Sprague-Dawley rat at 1 mg/kg, iv; format: ADME, organism-based; conditions: in vivo
[20] = Tmax in Sprague-Dawley rat at 5 mg/kg, po; format: ADME, organism-based; conditions: in vivo
[21] = molecular target: T3, PXR (NR1I2); experiment: […] at PXR LBD (unknown origin) expressed in HEK293 cells […] at 5 uM after 16 hrs by luciferase reporter gene assay relative to rifampicin; format: ADME, cell-based; conditions: HEK293 cells expressing PXR LBD, read-out: Efficacy
[22] = Terminal half life in Sprague-Dawley rat at 5 mg/kg, po; format: ADME, organism-based; conditions: in vivo, read-out: beta t1/2 (converted)
[23] = Clearance in Sprague-Dawley rat at 1 mg/kg, iv; format: ADME, organism-based; conditions: in vivo
[24] = AUC (0 to infinity) in Sprague-Dawley rat at 5 mg/kg, po; format: ADME, organism-based; design: dose 5 mg/kg, route oral, time infinity; conditions: in vivo

Sequence of Cytochrome P450 2C19 (P33261 whole entry): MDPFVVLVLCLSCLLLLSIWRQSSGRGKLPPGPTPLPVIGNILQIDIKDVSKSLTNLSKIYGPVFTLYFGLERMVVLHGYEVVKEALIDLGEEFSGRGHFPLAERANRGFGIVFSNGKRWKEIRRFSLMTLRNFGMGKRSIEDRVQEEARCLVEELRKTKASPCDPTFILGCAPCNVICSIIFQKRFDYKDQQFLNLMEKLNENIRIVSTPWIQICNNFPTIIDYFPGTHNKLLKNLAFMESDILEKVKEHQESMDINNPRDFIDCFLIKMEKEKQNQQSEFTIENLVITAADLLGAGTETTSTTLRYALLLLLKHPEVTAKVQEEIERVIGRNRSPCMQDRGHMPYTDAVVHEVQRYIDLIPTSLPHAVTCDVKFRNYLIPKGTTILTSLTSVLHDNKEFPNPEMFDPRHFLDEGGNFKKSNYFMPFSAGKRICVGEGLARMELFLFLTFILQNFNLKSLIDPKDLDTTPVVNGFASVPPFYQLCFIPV
Sequence of Cytochrome P450 3A4 (P08684 whole entry): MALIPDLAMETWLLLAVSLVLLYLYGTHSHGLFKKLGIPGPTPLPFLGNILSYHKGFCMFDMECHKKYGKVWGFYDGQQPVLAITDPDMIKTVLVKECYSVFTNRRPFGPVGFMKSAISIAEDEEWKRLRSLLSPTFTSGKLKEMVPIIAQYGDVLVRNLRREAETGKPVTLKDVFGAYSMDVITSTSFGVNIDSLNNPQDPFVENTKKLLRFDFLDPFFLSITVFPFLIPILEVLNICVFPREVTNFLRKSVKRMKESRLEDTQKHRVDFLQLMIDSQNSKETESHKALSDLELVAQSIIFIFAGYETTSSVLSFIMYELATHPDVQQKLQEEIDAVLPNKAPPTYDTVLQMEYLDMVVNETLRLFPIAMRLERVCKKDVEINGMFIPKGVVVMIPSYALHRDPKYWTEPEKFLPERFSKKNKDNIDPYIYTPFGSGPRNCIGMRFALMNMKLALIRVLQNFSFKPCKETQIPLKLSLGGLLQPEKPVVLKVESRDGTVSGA
Sequence of Cytochrome P450 2C9 (P11712 whole entry): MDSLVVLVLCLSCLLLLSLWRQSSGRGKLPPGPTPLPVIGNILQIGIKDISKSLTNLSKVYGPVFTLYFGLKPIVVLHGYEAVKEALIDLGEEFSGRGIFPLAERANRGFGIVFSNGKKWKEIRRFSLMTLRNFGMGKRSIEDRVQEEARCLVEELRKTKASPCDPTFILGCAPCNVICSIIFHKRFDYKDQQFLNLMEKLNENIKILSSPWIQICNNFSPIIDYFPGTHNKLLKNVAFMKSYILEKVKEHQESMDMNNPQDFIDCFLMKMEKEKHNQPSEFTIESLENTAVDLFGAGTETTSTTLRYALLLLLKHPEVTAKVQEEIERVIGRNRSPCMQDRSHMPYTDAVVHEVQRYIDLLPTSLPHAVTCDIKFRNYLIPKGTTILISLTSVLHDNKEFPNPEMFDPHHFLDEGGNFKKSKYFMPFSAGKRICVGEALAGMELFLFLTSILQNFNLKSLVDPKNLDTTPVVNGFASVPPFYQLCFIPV
Sequence of Cytochrome P450 2D6 (P10635 whole entry): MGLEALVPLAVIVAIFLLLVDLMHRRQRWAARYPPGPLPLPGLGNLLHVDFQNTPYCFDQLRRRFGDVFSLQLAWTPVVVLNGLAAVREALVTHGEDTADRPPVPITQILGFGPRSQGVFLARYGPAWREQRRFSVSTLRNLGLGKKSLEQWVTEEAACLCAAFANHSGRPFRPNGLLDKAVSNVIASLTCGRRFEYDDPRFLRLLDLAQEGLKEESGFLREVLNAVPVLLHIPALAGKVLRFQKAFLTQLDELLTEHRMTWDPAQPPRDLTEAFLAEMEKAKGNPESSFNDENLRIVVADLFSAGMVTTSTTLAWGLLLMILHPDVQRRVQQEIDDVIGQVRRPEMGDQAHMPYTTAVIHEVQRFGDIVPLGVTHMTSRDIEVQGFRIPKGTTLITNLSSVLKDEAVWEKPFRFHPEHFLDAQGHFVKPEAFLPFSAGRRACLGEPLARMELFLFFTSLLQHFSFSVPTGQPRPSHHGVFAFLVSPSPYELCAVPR

| SMILES | INH [2] | half-life [3] | INH [4] | half-life [5] | INH [6] | INH [7] | solubility thermodynamic at 10000 µM [8] | INH [9] | INH [10] | Emax at 16 h, 1 µM [11] | AUC(0-inf) [13] | Vd [14] | Kd [15] | C0 [16] | Cmax [17] | bioavailability [18] | half-life [19] | Tmax [20] | Emax at 16 h, 5 µM [21] | half-life [22] | further results |
| --- | --- | --- | --- | --- | --- | --- | --- | --- | --- | --- | --- | --- | --- | --- | --- | --- | --- | --- | --- | --- | --- |
| CC(C)(C)NS(=O)(=O)c1ccc(-c2sc(C(=O)N[C@H]3C[C@H](C(=O)O)C3)nc2CC2CCCCC2)c(C(F)(F)F)c1 | > 10 µM | > 3 h | > 10 µM | 2.33 h | > 10 µM | > 10 µM | < 4 µM | > 10 µM | 3.4 µM | – | – | – | – | – | – | – | – | – | – | – | solubility thermodynamic [1]: > 400 µM |
| Cc1c(S(=O)(=O)NC(C)(C)C)ccc(-c2sc(C(=O)N[C@H]3C[C@H](C(=O)O)C3)nc2CC2CCCCC2)c1OC(F)F | 8.7 µM | 0.617 h | > 10 µM | 0.433 h | > 10 µM | > 10 µM | < 1 µM | > 10 µM | 4 µM | 86% | – | – | – | – | – | – | – | – | – | – | solubility thermodynamic [1]: 50 µM (≈ 30.7 µg/mL); Emax at 16 h, 10 µM [12]: 173% |
| C[C@H](NS(=O)(=O)c1ccc(-c2sc(C(=O)NCC(C)(C)O)nc2CC2CCC2)c(C(F)F)c1)C(F)(F)F | 2.7 µM | > 3 h | 3 µM | 0.95 h | > 10 µM | 5.4 µM | < 4 µM | > 10 µM | > 10 µM | 74% | 198 ng·h/mL | 5.4 L/kg | > 72 µM | 310 ng/mL | 57 ng/mL | 32.5% | 1.9 h | 1.7 h | 144% | 3.2 h | clearance [23]: 46.7 mL/min/kg; AUC(0-inf) [24]: 321 ng·h/mL |
| CC(C)(C)NS(=O)(=O)c1ccc(-c2sc(C(=O)N[C@H]3C[C@H](C(=O)O)C3)nc2CC2CCCCC2)c(Cl)c1 | > 10 µM | 1.68 h | > 10 µM | 1.22 h | > 10 µM | > 10 µM | 6.6 µM (≈ 3.75 µg/mL) | > 10 µM | 3.5 µM | 101% | 162 ng·h/mL | 2.3 L/kg | > 75 µM | 2300 ng/mL | 130 ng/mL | 20% | 0.5 h | 0.8 h | – | 2.1 h | Emax at 16 h, 10 µM [12]: 178%; clearance [23]: 107 mL/min/kg; AUC(0-inf) [24]: 328 ng·h/mL |
| CC(C)NS(=O)(=O)c1ccc(-c2sc(C(=O)N[C@H]3C[C@H](C(=O)O)C3)nc2CC2CCCCC2)c(C(F)F)c1Cl | 7.6 µM | 1.88 h | > 10 µM | 1.42 h | > 10 µM | > 10 µM | 11 µM (≈ 6.65 µg/mL) | > 10 µM | 6.2 µM | 66% | – | – | – | – | – | – | – | – | 113% | – | solubility thermodynamic [1]: > 400 µM |
| C[C@H](NS(=O)(=O)c1ccc(-c2sc(C(=O)NC3CCS(=O)(=O)CC3)nc2CC2CC2)c2ccccc12)C(F)(F)F | 2.9 µM | 1.67 h | > 10 µM | 2.35 h | > 10 µM | > 10 µM | < 4 µM | > 10 µM | > 10 µM | 99% | 792 ng·h/mL | 3.4 L/kg | > 69 µM | 470 ng/mL | 276 ng/mL | 42.5% | 3.8 h | 1.7 h | 131% | 2.6 h | clearance [23]: 21.6 mL/min/kg; AUC(0-inf) [24]: 1700 ng·h/mL |
| C[C@H](NS(=O)(=O)c1ccc(-c2sc(C(=O)NCC(C)(C)O)nc2C2CCCCC2)c(Cl)c1Cl)C(F)(F)F | – | – | – | – | – | – | – | – | – | 60% | – | – | > 76 µM | – | – | – | – | – | 68% | – | – |
| C[C@H](NS(=O)(=O)c1ccc(-c2sc(C(=O)NCC(C)(C)O)nc2CC2CC2)c2ccccc12)C(F)(F)F | 0.4 µM | > 3 h | 2 µM | 0.9 h | > 10 µM | > 10 µM | < 4 µM | > 10 µM | 3.3 µM | 122% | 415 ng·h/mL | 29.5 L/kg | – | 119 ng/mL | 55 ng/mL | 14.8% | 10.2 h | 0.8 h | 188% | 6.9 h | clearance [23]: 40.7 mL/min/kg; AUC(0-inf) [24]: 314 ng·h/mL |
| CC(C)(C)NS(=O)(=O)c1ccc(-c2sc(C(=O)N3CC4(C3)CS(=O)(=O)C4)nc2CC2CCCCC2)c2ccccc12 | – | – | – | – | – | – | – | – | – | – | – | – | > 85 µM | – | – | – | – | – | – | – | – |
| C[C@H](NS(=O)(=O)c1ccc(-c2sc(C(=O)NCC(C)(C)O)nc2-c2cccc(F)c2)c(Cl)c1Cl)C(F)(F)F | – | – | – | – | – | – | – | – | – | 69% | – | – | > 78 µM | – | – | – | – | – | 122% | – | – |
